Assay results: the NIST ThermoML archive (doi:10.1016/j.tca.2006.01.020)
± gives the expanded uncertainty stated by the source.

Assay: molar heat capacity at constant pressure
Conditions: 101.33 kPa, Crystal, Small (less than 1 g) adiabatic calorimetry

[Ba+2].[Ce+4].[O-2].[O-2].[O-2] [barium cerium(IV) oxide]
Conditions	molar heat capacity at constant pressure [J/K/mol]
1.721 K	0.00113
1.726 K	0.00106
1.733 K	0.00113
1.761 K	0.00102
1.781 K	0.00108
1.833 K	0.00116
1.87 K	0.00103
1.904 K	0.00103
1.995 K	0.00167
2.042 K	0.00152
2.096 K	0.00138
2.134 K	0.00153
2.178 K	0.0019
2.817 K	0.00505
2.844 K	0.00578
2.877 K	0.0056
3.154 K	0.00691
3.175 K	0.00697
3.25 K	0.00798 ± 0.016
3.258 K	0.00871 ± 0.016
3.318 K	0.00829 ± 0.016
3.349 K	0.00913 ± 0.016
3.382 K	0.00944 ± 0.016
3.471 K	0.0093 ± 0.016
3.57 K	0.01 ± 0.016
3.673 K	0.0107 ± 0.016
3.834 K	0.0118 ± 0.016
3.983 K	0.0132 ± 0.016
4.14 K	0.0143 ± 0.016
4.241 K	0.0157 ± 0.016
4.384 K	0.0171 ± 0.016
4.454 K	0.0187 ± 0.016
4.608 K	0.0193 ± 0.016
4.68 K	0.0211 ± 0.016
4.756 K	0.0223 ± 0.016
4.835 K	0.0232 ± 0.016
4.911 K	0.0245 ± 0.016
4.992 K	0.026 ± 0.016
5.071 K	0.0274 ± 0.016
5.152 K	0.0284 ± 0.016
5.227 K	0.0294 ± 0.016
5.296 K	0.0316 ± 0.016
5.375 K	0.0321 ± 0.016
5.441 K	0.0353 ± 0.016
5.536 K	0.0361 ± 0.016
5.614 K	0.0388 ± 0.016
5.697 K	0.0405 ± 0.016
5.78 K	0.0425 ± 0.016
5.861 K	0.0448 ± 0.016
5.946 K	0.0466 ± 0.016
6.034 K	0.0491 ± 0.016
6.119 K	0.0516 ± 0.016
6.209 K	0.0536 ± 0.016
6.297 K	0.0571 ± 0.016
6.366 K	0.057 ± 0.016
6.457 K	0.0616 ± 0.016
6.548 K	0.0639 ± 0.016
6.647 K	0.0675 ± 0.016
6.739 K	0.0705 ± 0.017
6.841 K	0.0743 ± 0.017
6.93 K	0.0778 ± 0.017
7.04 K	0.0831 ± 0.017
7.13 K	0.0857 ± 0.017
7.24 K	0.0907 ± 0.017
7.34 K	0.0935 ± 0.017
7.45 K	0.0993 ± 0.017
7.55 K	0.103 ± 0.017
7.66 K	0.11 ± 0.017
7.76 K	0.115 ± 0.017
7.89 K	0.123 ± 0.017
8 K	0.129 ± 0.017
8.13 K	0.138 ± 0.017
8.25 K	0.145 ± 0.017
8.38 K	0.156 ± 0.018
8.5 K	0.164 ± 0.018
8.64 K	0.176 ± 0.018
8.77 K	0.185 ± 0.018
8.91 K	0.201 ± 0.018
9.04 K	0.209 ± 0.018
9.17 K	0.221 ± 0.018
9.32 K	0.241 ± 0.019
9.46 K	0.251 ± 0.019
9.59 K	0.266 ± 0.019
9.75 K	0.289 ± 0.019
9.92 K	0.309 ± 0.02
10 K	0.318 ± 0.021
10.08 K	0.328 ± 0.02
10.23 K	0.348 ± 0.02
10.4 K	0.377 ± 0.02
10.58 K	0.4 ± 0.021
10.76 K	0.433 ± 0.021
10.94 K	0.461 ± 0.021
11.1 K	0.489 ± 0.022
11.3 K	0.534 ± 0.022
11.48 K	0.561 ± 0.023
11.68 K	0.61 ± 0.023
